Experimental data published in patent US20250255889A1, “METHODS FOR TREATMENT SELECTION FOR CHRONIC LYMPHOCYTIC LEUKEMIA (CLL)” (The Broad Institute, Inc., priority 2022, published 2025).

System: primary CLL samples (CD19+ and CD5+ cells)
Assay: High-throughput dynamic BH3 profiling (HT-DBP): drug-induced apoptotic priming (delta priming), cytochrome c release after BH3 peptide
Type: cell-based, human
Protocol: By “delta priming” is meant the difference in priming of a cell for apoptosis measured in the presence of an agent for treating chronic lymphocytic leukemia relative to priming of the cell in the presence of an inert carrier. In embodiments, the inert carrier is DMSO.
Dynamic BH3 Profiling Dynamic BH3 profiling (DBP) is a drug screening assay that measures the relative priming of cells in a biological sample for cell death by apoptosis in the presence of a specific compound and/or a pro-apoptotic peptide. By “Dynamic BH3 profiling” is meant measuring drug-induced changes in mitochondrial apoptotic priming. Mitochondrial apoptotic priming is a measure of how close to the apoptotic threshold a cell is. A highly primed cell has relatively less anti-apoptotic binding site availability and is closer to the apoptotic threshold than a poorly primed cell, which has more anti-apoptotic availability to buffer an apoptotic assault and is further from the apoptotic threshold. BH3 peptides derived from the BH3 domain of pro-apoptotic BH3-only proteins provoke a response from viable mitochondria. Cytochrome c released from the mitochondria after a short incubation with BH3 peptide is used as a surrogate for priming. In general, the more sensitive a mitochondrion is to a BH3 peptide, the more primed it is. A drug treatment that enhances priming will cause mitochondria to undergo MOMP more easily when incubated with a fixed concentration of a promiscuously binding BH3 peptide, such as BIM BH3 peptide, compared to control-treated cells. See, for example, Potter, D. S. & Letai, A. To prime, or not to prime: that is the question. Cold Spring Harb. Symp. Quant. Biol. 81, 131-140 (2016); Montero, J. et al. Drug-induced death signaling strategy rapidly predicts cancer response to chemotherapy. Cell 160, 977-989 (2015); Daniels, V. W. et al. Metabolic perturbations sensitize triple-negative breast cancers to apoptosis induced by BH3 mimetics. Sci.
Dynamic BH3 profiling and peptides for use therein are described, for example, in Certo, et al., “Mitochondria primed by death signals determine cellular addiction to antiapoptotic BCL-2 family members,” Cancer Cell, 9:351-365 (2006); and in Foight, et al. “Designed BH3 Peptides with High Affinity and Specificity for Targeting Mcl-1 in Cells,” ACS Chemical Biology, 9:1962-1968 (2014), the disclosures of which are incorporated herein by reference in their entireties for all purposes. The DBP assay enables one to compare the response of a patient tumor sample to a specific drug relative to other drugs and relative to an inert control (e.g., DMSO).
To address the challenge of selecting a proper treatment for a chronic lymphocytic leukemia, experiments were undertaken to optimize high-throughput dynamic BH3 profiling (HT-DBP) for evaluation of the drug sensitivities of CLL samples (FIGS. 1, 13, 5A, 5B, 6A, 6B, and 7A-7C).

[1] = peptide BAD 0.3 uM, feature BIRC3
[2] = peptide BAD 0.3 uM, feature EC-m2
[3] = peptide BAD 0.3 uM, feature FBXW7
[4] = peptide BAD 0.3 uM, feature ITIH2
[5] = peptide BAD 0.3 uM, feature MYD88
[6] = peptide BAD 0.3 uM, feature gain_19p13.3
[7] = peptide BAD 0.3 uM, feature i-CLL
[8] = peptide BAD 0.3 uM, feature loss_3p21.31
[9] = peptide BAD 0.3 uM, feature loss_5p15.33
[10] = peptide BAD 0.3 uM, feature loss_7q36.1
[11] = peptide BAD 0.3 uM, feature loss_8p
[12] = peptide BAD 0.3 uM, feature loss_12p13.31a
[13] = peptide BAD 0.3 uM, feature loss_14q32.12
[14] = peptide BAD 0.3 uM, feature loss_17p13.1
[15] = peptide BAD 0.3 uM, feature loss_17p13.3
[16] = peptide BAD 0.3 uM, feature loss_17q11.2
[17] = peptide BIM 0.01 uM, feature EC-i
[18] = peptide BIM 0.01 uM, feature loss_1p36.11
[19] = peptide BIM 0.01 uM, feature loss_3p13
[20] = peptide BIM 0.01 uM, feature loss_10q24.32
[21] = peptide BIM 0.01 uM, feature loss_18q21.2
[22] = peptide BIM 0.01 uM, feature priortrt_Post
[23] = peptide MS1 2.5 uM, feature EC-m4
[24] = peptide PUMA 1 uM, feature loss_1q21.3
[25] = peptide PUMA 1 uM, feature loss_7p22.2

SMILES: Cc1sc2c(c1C)C(c1ccc(Cl)cc1)=N[C@@H](CC(=O)OC(C)(C)C)c1nnc(C)n1-2 [JQ1]
- direction (Feature EC-i): Sensitive
- direction (Feature FBXW7): Sensitive
- direction [1]: Sensitive
- dprim_pearson_corr [1]: 0.6355
- direction [2]: Sensitive
- dprim_pearson_corr [2]: 0.3877
- direction [3]: Sensitive
- dprim_pearson_corr [3]: 0.5086
- direction [4]: Sensitive
- dprim_pearson_corr [4]: 0.6355
- direction [5]: Resistant
- dprim_pearson_corr [5]: −0.3438
- direction [6]: Sensitive
- dprim_pearson_corr [6]: 0.359
- direction [7]: Sensitive
- dprim_pearson_corr [7]: 0.3327
- direction [8]: Resistant
- dprim_pearson_corr [8]: −0.3438
- direction [9]: Resistant
- dprim_pearson_corr [9]: −0.3996
- direction [10]: Resistant
- dprim_pearson_corr [10]: −0.3438
- direction [11]: Resistant
- dprim_pearson_corr [11]: −0.3438
- direction [12]: Resistant
- dprim_pearson_corr [12]: −0.3996
- direction [13]: Resistant
- dprim_pearson_corr [13]: −0.3438
- direction [14]: Sensitive
- dprim_pearson_corr [14]: 0.507
- direction [15]: Resistant
- dprim_pearson_corr [15]: −0.3996
- direction [16]: Sensitive
- dprim_pearson_corr [16]: 0.6355
- direction [17]: Sensitive
- dprim_pearson_corr [17]: 0.3826
- direction [18]: Sensitive
- dprim_pearson_corr [18]: 0.4365
- direction [19]: Sensitive
- dprim_pearson_corr [19]: 0.3364
- direction [20]: Sensitive
- dprim_pearson_corr [20]: 0.4365
- direction [21]: Sensitive
- dprim_pearson_corr [21]: 0.4365
- direction [22]: Sensitive
- dprim_pearson_corr [22]: 0.3609
- direction [23]: Sensitive
- dprim_pearson_corr [23]: 0.3901
- direction (peptide PUMA 1 uM, feature ATM): Resistant
- direction (peptide PUMA 1 uM, feature EC-i): Resistant
- direction (peptide PUMA 1 uM, feature MYD88): Resistant
- direction (peptide PUMA 1 uM, feature gain_16p11.2): Resistant
- direction (peptide PUMA 1 uM, feature loss_1p36.11): Sensitive
- direction [24]: Resistant
- direction (peptide PUMA 1 uM, feature loss_2q31.1): Resistant
- direction (peptide PUMA 1 uM, feature loss_3p13): Sensitive
- direction (peptide PUMA 1 uM, feature loss_3p21.31): Resistant
- direction (peptide PUMA 1 uM, feature loss_5p15.33): Resistant
- direction [25]: Resistant
- direction (peptide PUMA 1 uM, feature loss_7q36.1): Resistant
- direction (peptide PUMA 1 uM, feature loss_8p): Resistant
- direction (peptide PUMA 1 uM, feature loss_10p12.2): Resistant
- direction (peptide PUMA 1 uM, feature loss_10q24.32): Sensitive
- direction (peptide PUMA 1 uM, feature loss_12p13.31a): Resistant
- direction (peptide PUMA 1 uM, feature loss_14q32.12): Resistant
- direction (peptide PUMA 1 uM, feature loss_16q22.1): Resistant
- direction (peptide PUMA 1 uM, feature loss_17p13.3): Resistant
- direction (peptide PUMA 1 uM, feature loss_18q21.2): Sensitive

SMILES: Nc1cccc2c1CN(C1CCC(=O)NC1=O)C2=O (stereo not shown) [Lenalidomide]
- direction (peptide BAD 0.3 uM, feature loss_10q24.32): Resistant
- direction (peptide BIM 0.01 uM, feature loss_15q15.1b): Resistant
- direction (peptide BIM 0.01 uM, feature loss_20p11.22): Resistant
- direction (peptide MS1 2.5 uM, feature CNOT3): Sensitive

SMILES: NC1(c2ccc(-c3nc4ccn5c(=O)[nH]nc5c4cc3-c3ccccc3)cc2)CCC1 [MK-2206]
- direction (Feature priortrt_Post): Resistant
- direction (peptide BAD 0.3 uM, feature EC-i): Resistant
- direction (peptide BAD 0.3 uM, feature IGLV321_R110): Resistant
- direction (peptide BAD 0.3 uM, feature RPS15): Resistant
- direction (peptide BAD 0.3 uM, feature loss_6q): Resistant
- direction (peptide BAD 0.3 uM, feature priortrt_Post): Resistant
- direction (peptide BIM 0.01 uM, feature BIRC3): Sensitive
- direction (peptide BIM 0.01 uM, feature ITIH2): Sensitive
- direction (peptide BIM 0.01 uM, feature loss_9p21.3): Sensitive
- direction (peptide BIM 0.01 uM, feature loss_17q11.2): Sensitive
- direction (peptide MS1 2.5 uM, feature EC-i): Resistant
- direction (peptide MS1 2.5 uM, feature IGLV321_R110): Resistant
- direction (peptide MS1 2.5 uM, feature RPS15): Resistant
- direction (peptide MS1 2.5 uM, feature loss_6q): Resistant
- direction (peptide PUMA 1 uM, feature priortrt_Post): Resistant

SMILES: CCC[C@H](N[C@H]1CCc2cc(F)cc(F)c2C1)C(=O)Nc1cn(C(C)(C)CNCC(C)(C)C)cn1 [Nirogacestat]
- direction (peptide BAD 0.3 uM, feature loss_1p36.11): Resistant
- direction (peptide BAD 0.3 uM, feature loss_3p13): Resistant
- direction (peptide BAD 0.3 uM, feature loss_18q21.2): Resistant
- direction (peptide BIM 0.01 uM, feature EC-m2): Sensitive
- direction (peptide BIM 0.01 uM, feature tri_12): Sensitive
- direction (peptide PUMA 1 uM, feature BIRC3): Sensitive
- direction [24]: Sensitive
- direction [25]: Sensitive
- direction (peptide PUMA 1 uM, feature loss_9p21.3): Sensitive
- direction (peptide PUMA 1 uM, feature loss_17q11.2): Sensitive
